Consider 1 molecule from US20230285357A1, “COMPOSITIONS AND METHODS FOR […] CELLS” (The Regents of the University of California, priority 2020, published 2023).

Assay [1] concerns aortic cells of Osx-GfptgMgp−/− mice. The assay is described as follows: Osteoblastic-lineage tracing in Osx-GfptgMgp−/− mice, FACS of aortic cells. The note with it: Osx-GfptgMgp−/− mice treated for 2 weeks. The assay is classed as in vivo, mouse. As to the method:
Then, mice were treated with or without SB216763 for 2 weeks. […] Then, the alteration of GFP and CD31 double positive cells (GFP+CD31+) were characterized after SB216763 treatment. […] Same numbers of cells of each group were used to perform a transplantation experiment to examine the capacity of bone formation by using bone formation assay in vivo.
FACS analysis was performed as previously described. The cells were stained with fluorescein isothiocyanate (FITC)-, phycoerythrin (PE)-, or Alexa Fluor 488 (AF-488)-conjugated antibodies against CD31 and VE-cadherin (all from BD biosciences, 550274 and 562243), osterix (Santa Cruz Biotechnology, sc-22536). Nonspecific fluorochrome- and isotype-matched IgGs (BD Pharmingen) served as controls.

Assay [2] deals with osteoblasts. Description: RNA sequencing of SB216763-treated osteoblasts. The assay is classed as cell-based, mouse. The text has this:
The differential expression profiles of SB216763-treated osteoblasts using RNA sequencing was examined. […] These overlapped with 1357 genes identified as low expression when osteoblast vs EC was compared, and a 307-gene cohort with decreased expression in both analyses was identified (FIG. 1, Part G). Gene Ontology (GO) termed these genes enriched for the signal pathway of osteoblastic differentiation and bone development (FIG. 1, Part G). Similarly, 519 genes with increased expression after SB21673 treatment were found (FIG. 1, Part H).
For RNA sequencing, osteoblasts were treated with 10 μM SB216763 for 14 days, and RNA was isolated for library preparation. The sequencing was conducted by the Pathology Research Services at UCLA. Spliced Transcripts Alignment to Reference (STAR) was used for the read alignment. Cufflinks was used to assemble transcripts, estimate their abundances, and assess the differential expression. GO analysis and pathway enrichment of the identified genes were performed.

The subject of assay [3] is SMAD1 and β-catenin. Description: Immunoblotting of SMAD1, phosphorylated SMAD1 and β-catenin in treated osteoblasts. The note with it: different doses. Type of assay: cell-based, mouse. From the text:
The expression of transcription factors that are known to be involved in bone formation or vascular development were screened. […] To determine if excess β-catenin affected SMAD1 expression, β-catenin in SB216763-treated osteoblasts was depleted by using siRNA. […] DNA-binding sites of β-catenin by locating the binding motifs in Smad1 gene was explored, and identified four individual sites located at −196 bp, −1454 bp, −2805 bp and −4729 bp upstream of exon1 of Smad1 gene (FIG. 3, Part D). […] Then, transcriptional status of Smad1 was determined by examining the histone modification, including trimethylated histone H3 lysine 4 (H3K4me3) associated with active transcription and H3K27me3 a closed chromatin mark.
Immunoblotting was performed as previously described. Equal amounts of tissue lysates were used for immunoblotting. Blots were incubated with specific antibodies to SMAD1, GSK3α and GSK3β (all from Cell Signaling Technology, 9743, 433T and 93115), β-catenin and cbfa1 (all from R&D system, AF1329 and MAB2006), osterix (Santa Cruz Biotechnology, sc-22536), Flk1 and VE-cadherin (all from BD Bioscience, 55307 and 562242), vWF (Dako, A0082). 3-Actin (Sigma-Aldrich, A2228) was used as a loading control. Immunofluorescence was performed as previously described in detail. […]
A general note: A western blot detects proteins with antibodies after separation by electrophoresis.

Assay [4] has as its system eGFP positive cells from SB216763-treated Flk1-eGFP osteoblasts. The assay is described as follows: Tube formation assay in vitro. Type of assay: cell-based, mouse. As to the method:
Then, same cells in a model of hindlimb ischemia in nude mice to evaluate the capacity of eGFP positive cells in vascular repair were tested. After ligation of the proximal and distal femoral artery, eGFP positive cells were transplanted (FIG. 2, Part F). Human aortic endothelial cells (HAECs) and osteoblasts were used as controls.
Tube formation assays in vitro was then tested. […] Cells into hindlimb ischemia mouse model were transplanted.

Assay [5] concerns GSK3α and GSK3β. The note with it: cited from earlier work.
Assay [6] deals with Flk1-eGFP osteoblasts (mouse osteoblast line MC3T3). The assay is described as follows: High throughput screen for eGFP expression in Flk1-eGFP osteoblasts. The assay is classed as cell-based. The note with it: after 14 days of treatment. From the text:
A high throughput screen was generated by modifying the mouse osteoblast line MC3T3. Fetal liver kinase 1 (Flk1) promoter-driven enhanced green fluorescent protein (eGFP) was introduced into these osteoblasts. […] Several libraries of small molecules, including a FDA-approved drug library, a UCLA in-house collection, and a custom set of compounds were screened. These libraries contained more than 22,000 small molecules ranging from natural products to synthesized compounds. […] It was further determined the specificity of endothelial differentiation by closely examining other vascular lineage markers including smooth muscle cells (SMCs), pericytes, and fibroblasts by using real-time PCR. […] Because GSK3 is important in glucose metabolism, the expression of genes related to glucose metabolism was determined in the SB216763-treated osteoblasts, such as casein kinase 2, glucose transporter 4, and insulin receptor substrates 1 and 2.
MC3T3 cells were stably infected with Flk1 promoter-driven eGFP by using Flk1-eGFP lentivirus (GeneCopoeia™). […] The plates were transferred and delivered by a Thermo Scientific™ Spinnaker™ Robot (ThermoFisher Scientific). eGFP expression was determined and imaged using a FlexStation II and Victor 3V (Perkin Elmer) every day for two weeks.

[7] abbreviates: 4-fold differential threshold level.

Consider `Cn1cc(C2=C(c3ccc(Cl)cc3Cl)C(=O)NC2=O)c2ccccc21` [SB216763], for which, in assay [1], the “aortic cells co-expressing GFP and CD31, FACS” value is “decreased number of cells that co-expressed GFP and CD31”; the “aortic cells expressing only CD31, FACS” value is “increased number of cells that only expressed CD31”. Also, the transcript profile result in assay [2] (10 μM for 14 days) was “increased the similarities between the treated osteoblasts and ECs”. In addition, in assay [2] (setting [7]), the “cohort with decreased expression in both analyses (overlap with osteoblast vs EC low expression genes)” value is on record as 307 gene, the “cohort with increased expression in both analyses (overlap with EC vs osteoblast high expression genes)” value came out at 235 genes, the “genes decreased in expression” value amounted to 827 genes and the “genes with increased expression” value was 519 genes. In assay [3], the “expression and phosphorylation of SMAD1” value is listed as “dose-dependent decrease”; the β-catenin protein level result was “robust increase”. Also, the tube formation result in assay [4] (SB216763-treated cells with β-catenin depletion) is on record as “decrease of tube formation”. In assay [4] (eGFP positive cells from treated osteoblasts), the tube formation entry is given as “robust tube formation”. Further, in assay [5], the “inhibition of GSK3 isoforms GSK3α and GSK3β” value was “specifically inhibits the activity of these GSK3 isoforms in an ATP competitive manner”. In addition, in assay [6], the cell morphology result is “converted osteoblasts into EC-like morphology” and the eGFP expression result is given as “strongly activated eGFP expression”.
